One test concerns the target T1, BRD2 BD2 (Homo sapiens, UniProt P25440).
T1 construct: BRD2 BD2, BRD3 BD2 and BRD4 BD2 (Cisbio); purchased Cisbio
The test can be described thus: Binding assay, BRD2 BD2 to acetylated histone H4 Peptide-Biotin (EPIgeneous Binding Domain Kit B). Conditions: test compound at 300 nmol/L; read-out: Binding inhibition percentage BRD2 BD2. The method, then: (§1) Moreover, BRD2 BD2, BRD3 BD2 and BRD4 BD2 (Cisbio), Peptide-Biotin (AnaSpec), and EPIgeneous (registered trademark) Binding Domain Kit B (Cisbio) were used to carry out an assay. That is, per well, 4 μL of BRD2 BD2, BRD3 BD2 or BRD4 BD2, which was adjusted to 20 nmol/L with Diluent buffer; 4 μL of 250 nmol/L Peptide-Biotin; 2 μL of Dilution buffer (Cisbio) containing DMSO or a test compound that was serially diluted with DMSO; 5 μL of 25 nmol/L Streptavidin-XL665; 5 μL of Anti-Gst-Eu+^3+ Cryptate Conjugate 50-fold diluted with Detection Buffer were added to a 384-well plate (Corning).
(§2) The obtained mixture was left at rest at room temperature for 20 hours, and thereafter, the fluoresence intensity at 665 nm and 620 nm was measured using Envision plate reader (Perkin Elmer), so that the inhibition percentage (%) of the test compound against the binding of a bromodomain in a bromodomain-containing protein to Peptide-Biotin was calculated. Binding inhibition percentage (%)=[1−{(fluorescence intensity at 665 nm of test compound−added well)/(fluorescence intensity at 620 nm of test compound−added well)}/{(fluorescence intensity at 665 nm of DMSO−added well)/(fluorescence intensity at 665 nm of DMSO−added well)}]×100
(§3) Moreover, using Graphpad prism 5 (GraphPad software), 50% inhibitory concentration [IC50 (nmol/L)] was calculated according to a non-linear regression analysis (log (inhibitor) vs. response—Variable slope (four parameters)).
(§4) Regarding other test compounds, each compound was diluted with DMSO to a final concentration of 300 nmol/L by the same method as that described above, and the binding inhibition percentage (%) of each test compound at 300 nmol/L against the binding of bromodomain in a bromodomain-containing protein to acetylated histone was calculated.

The target in a further test is T2, BRD2 BD1 (Homo sapiens, UniProt P25440).
T2 construct: BRD2 BD1, BRD3 BD1 and BRD4 BD1 (Cisbio); purchased Cisbio
T2 sequence (P25440 74-180 limits assumed): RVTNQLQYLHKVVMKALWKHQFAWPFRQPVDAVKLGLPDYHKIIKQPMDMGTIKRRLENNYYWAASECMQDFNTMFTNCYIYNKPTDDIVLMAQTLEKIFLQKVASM
The test can be described thus: Binding assay, BRD2 BD1 to acetylated histone H4 Peptide-Biotin (EPIgeneous Binding Domain Kit A). Conditions: test compound at 300 nmol/L; read-out: Binding inhibition percentage BRD2 BD1. As to the method: (§5) BRD2 BD1, BRD3 BD1 and BRD4 BD1 (Cisbio), [Lys(Ac)5/8/12/16]-Histone H4(1-25)-GSGSK (Biotin) (hereinafter referred to as “Peptide-Biotin,” AnaSpec), and EPIgeneous (registered trademark) Binding Domain Kit A (Cisbio) were used to carry out an assay. That is to say, per well, 4 μL of BRD2 BD1, BRD3 BD1 or BRD4 BD1, which was adjusted to 20 nmol/L with Diluent buffer; 4 μL of 25 nmol/L Peptide-Biotin; 2 μL of Dilution buffer (Cisbio) containing dimethyl sulfoxide (DMSO) or a test compound that was serially diluted with DMSO; 5 μL of 2.5 nmol/L Streptavidin-d2; and 5 μL of Anti-Gst-Eu+^3+ Cryptate Conjugate 50-fold diluted with Detection Buffer were added to a 384-well plate (Corning).
as §2, §3, §4

A further test addresses T3, BRD3 BD1 (Homo sapiens, UniProt Q15059).
T3 construct: BRD2 BD1, BRD3 BD1 and BRD4 BD1 (Cisbio); purchased Cisbio
Nature of the test: Binding assay, BRD3 BD1 to acetylated histone H4 Peptide-Biotin (EPIgeneous Binding Domain Kit A). Conditions: test compound at 300 nmol/L; read-out: Binding inhibition percentage BRD3 BD1. As to the method:
as §5, §2, §3, §4

For the next test, the target named is T4, BRD3 BD2 (Homo sapiens, UniProt Q15059).
T4 construct: BRD2 BD2, BRD3 BD2 and BRD4 BD2 (Cisbio); purchased Cisbio
T4 sequence (Q15059 306-415 limits assumed): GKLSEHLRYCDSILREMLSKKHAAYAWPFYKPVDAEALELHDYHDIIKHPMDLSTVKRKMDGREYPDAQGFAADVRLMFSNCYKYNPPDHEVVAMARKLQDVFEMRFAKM
Nature of the test: Binding assay, BRD3 BD2 to acetylated histone H4 Peptide-Biotin (EPIgeneous Binding Domain Kit B). Conditions: test compound at 300 nmol/L; read-out: Binding inhibition percentage BRD3 BD2. As to the method: as §1, §2, §3, §4

The target in another test is T5, BRD4 BD2 (Homo sapiens, UniProt O60885).
T5 construct: BRD2 BD2, BRD3 BD2 and BRD4 BD2 (Cisbio); purchased Cisbio
Nature of the test: Binding assay, BRD4 BD2 to acetylated histone H4 Peptide-Biotin (EPIgeneous Binding Domain Kit B). As to conditions: test compound at 300 nmol/L; read-out: Binding inhibition percentage BRD4 BD2. The method, then:
as §1, §2, §3, §4

In a further test the target is T6, BRD4 BD1 (Homo sapiens, UniProt O60885).
T6 construct: BRD2 BD1, BRD3 BD1 and BRD4 BD1 (Cisbio); purchased Cisbio
Nature of the test: Binding assay, BRD4 BD1 to acetylated histone H4 Peptide-Biotin (EPIgeneous Binding Domain Kit A). Conditions: test compound at 300 nmol/L; read-out: Binding inhibition percentage BRD4 BD1. As to the method: as §5, §2, §3, §4

T3 sequence (Q15059 34-140 limits assumed): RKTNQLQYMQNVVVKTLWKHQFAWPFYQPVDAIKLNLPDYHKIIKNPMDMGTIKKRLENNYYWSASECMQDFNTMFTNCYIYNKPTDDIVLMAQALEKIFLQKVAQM
T1 sequence (P25440 344-453 limits assumed): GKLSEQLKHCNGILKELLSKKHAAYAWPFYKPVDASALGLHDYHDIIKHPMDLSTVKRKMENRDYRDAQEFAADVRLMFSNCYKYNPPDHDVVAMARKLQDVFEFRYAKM

Consider `CCn1c(=O)cc(C2CC2)c2cc(N(C)C(=O)c3ccccc3)ccc21` [Example 2, N-(4-cyclopropyl-1-ethyl-2-oxo-1,2-dihydroquinolin-6-yl)-N-methylbenzamide], for which the inhibition at 0.3 µM came out at 89% on BRD2 BD2; 52% at BRD2 BD1; 85% on BRD3 BD1; 91% at BRD3 BD2; 86% on BRD4 BD2; 85% at BRD4 BD1.
For the compound `CCn1c(=O)cc(N2CCOCC2)c2cc(-n3c(-c4ccccc4)c[nH]c3=O)ccc21` [Example 3, 1-ethyl-4-(morpholin-4-yl)-6-(2-oxo-5-phenyl-2,3-dihydro-1H-imidazol-1-yl)quinolin-2(1H)-one], the inhibition at 0.3 µM on BRD2 BD2 worked out at 89%; at BRD2 BD1 it was 91%; at BRD3 BD1, 94%; at BRD3 BD2, 91%; at BRD4 BD2 it was 89%; at BRD4 BD1, 94%.
On to `CCN1CCC(c2cc(=O)n(CC)c3ccc(C(=O)N(C)c4ccccc4)cc23)CC1` [Example 8, 1-ethyl-4-(1-ethylpiperidin-4-yl)-N-methyl-2-oxo-N-phenyl-1,2-dihydroquinoline-6-carboxamide], for which the inhibition at 0.3 µM on BRD2 BD2 was determined as 79%; on BRD2 BD1 it was 93%; on BRD3 BD1, 94%; at BRD3 BD2, 67%; at BRD4 BD2 it was 74%; on BRD4 BD1 it was 94%.
Take `CCn1c(=O)cc(C(C)C)c2cc(N(C)C(=O)c3ccc(Cl)cc3)ccc21` [Example 16, 4-Chloro-N-(1-ethyl-2-oxo-4-(propan-2-yl)-1,2-dihydroquinolin-6-yl)-N-methylbenzamide]: the inhibition at 0.3 µM worked out at 87% at BRD2 BD2; 44% on BRD2 BD1; 79% on BRD3 BD1; 92% on BRD3 BD2; 88% on BRD4 BD2; 70% at BRD4 BD1.
In the case of `CCn1c(=O)cc(N2CCOCC2)c2cc(-c3cnn(C)c3-c3ccccc3)ccc21` [Example 18, 1-Ethyl-6-(1-methyl-5-phenyl-1H-pyrazol-4-yl)-4-(morpholin-4-yl)quinolin-2(1H)-one], the inhibition at 0.3 µM on BRD2 BD2 amounted to 86%; on BRD2 BD1 it was 89%; on BRD3 BD1, 93%; at BRD3 BD2, 88%; on BRD4 BD2 it was 85%; at BRD4 BD1, 94%.
As to `CCn1c(=O)cc(C2CCN(CCO)CC2)c2cc(C(=O)N(C)c3ccc4c(c3)CCCC4)ccc21` [Example 179, 1-ethyl-4-(1-(2-hydroxyethyl)piperidin-4-yl)-N-methyl-2-oxo-N-(5,6,7,8-tetrahydronaphthalen-2-yl)-1,2-dihydroquinoline-6-carboxamide], the inhibition at 0.3 µM on BRD2 BD2 was 88%; on BRD2 BD1, 93%; on BRD3 BD1, 94%; at BRD3 BD2, 92%; on BRD4 BD2, 88%; on BRD4 BD1, 95%.
With `CCn1c(=O)cc(C2CCN(C(=O)C(C)C)CC2)c2cc(C(=O)N(C)c3ccc(C)cc3)ccc21` [Example 183, 1-ethyl-N-methyl-N-(4-methylphenyl)-4-(1-(2-methylpropanoyl)piperidin-4-yl)-2-oxo-1,2-dihydroquinoline-6-carboxamide], the inhibition at 0.3 µM worked out at 71% on BRD2 BD2; 81% at BRD2 BD1; 92% at BRD3 BD1; 80% at BRD3 BD2; 83% on BRD4 BD2; 94% on BRD4 BD1.
Consider `CCn1c(=O)cc(C2CCN(CCO)CC2)c2cc(C(=O)N(C)c3ccc4c(c3)CCCCC4)ccc21` [Example 191], for which the inhibition at 0.3 µM amounted to 87% on BRD2 BD2; 94% at BRD2 BD1; 95% on BRD3 BD1; 92% on BRD3 BD2; 88% on BRD4 BD2; 94% at BRD4 BD1.
For `Cc1ccc(N(C)C(=O)c2ccc3c(c2)c(C2CCN(C)CC2)cc(=O)n3C)cc1` [Example 235, N,1-dimethyl-N-(4-methylphenyl)-4-(1-methylpiperidin-4-yl)-2-oxo-1,2-dihydroquinoline-6-carboxamide], the inhibition at 0.3 µM on BRD2 BD2 came to 82%; on BRD2 BD1, 94%; at BRD3 BD1, 94%; on BRD3 BD2, 89%; at BRD4 BD2, 87%; on BRD4 BD1, 95%.
On to `CCn1c(=O)cc(C2CC2)c2cc(-n3c(=O)[nH]c(=O)n3-c3ccccc3)ccc21` [Example 248, 1-(4-cyclopropyl-1-ethyl-2-oxo-1,2-dihydroquinolin-6-yl)-2-phenyl-1,2,4-triazolidine-3,5-dione], for which the inhibition at 0.3 µM was 90% at BRD2 BD2; 93% at BRD2 BD1; 95% on BRD3 BD1; 91% at BRD3 BD2; 90% on BRD4 BD2; 95% at BRD4 BD1.
As to `CCn1c(=O)cc(N2CCOCC2)c2cc(N(C)C(=O)c3ccc(Cl)cc3)ccc21` [Example 250, 4-chloro-N-(1-ethyl-4-(morpholin-4-yl)-2-oxo-1,2-dihydroquinolin-6-yl)-N-methylbenzamide], the inhibition at 0.3 µM on BRD2 BD2 came to 88%; at BRD2 BD1, 74%; on BRD3 BD1, 91%; on BRD3 BD2, 92%; on BRD4 BD2 it was 88%; at BRD4 BD1 it was 91%.
Turning to `CCn1c(=O)cc(C2CC2)c2cc(-c3nc(C)nn3-c3ccccc3)ccc21` [Example 252, 4-cyclopropyl-1-ethyl-6-(3-methyl-1-phenyl-1H-1,2,4-triazol-5-yl)quinolin-2(1H)-one], the inhibition at 0.3 µM on BRD2 BD2 was 86%; at BRD2 BD1 it was 82%; on BRD3 BD1 it was 92%; at BRD3 BD2, 90%; at BRD4 BD2 it was 88%; on BRD4 BD1 it was 94%.
For the compound `CCn1c(=O)cc(N2CCOCC2)c2cc(N3C(=O)CC[C@H]3c3ccccc3)ccc21` [Example 253, 1-ethyl-4-(morpholin-4-yl)-6-((5S)-2-oxo-5-phenylpyrrolidin-1-yl)quinolin-2(1H)-one], the inhibition at 0.3 µM at BRD2 BD2 is 87%; on BRD2 BD1, 70%; on BRD3 BD1, 90%; at BRD3 BD2 it was 89%; at BRD4 BD2 it was 85%; at BRD4 BD1, 92%.
For `CCn1c(=O)cc(N2CCOCC2)c2cc(-n3ccnc3-c3ccccc3)ccc21` [Example 255, 1-ethyl-4-(morpholin-4-yl)-6-(2-phenyl-1H-imidazol-1-yl)quinolin-2(1H)-one], the inhibition at 0.3 µM was 89% on BRD2 BD2; 79% on BRD2 BD1; 92% at BRD3 BD1; 90% on BRD3 BD2; 87% at BRD4 BD2; 94% on BRD4 BD1.
`CCn1c(=O)cc(N2CCOCC2)c2cc(-n3cc(C)nc3-c3ccccc3)ccc21` [Example 256, 1-ethyl-6-(4-methyl-2-phenyl-1H-imidazol-1-yl)-4-(morpholin-4-yl)quinolin-2(1H)-one]: the inhibition at 0.3 µM at BRD2 BD2 was found to be 86%; at BRD2 BD1, 84%; on BRD3 BD1 it was 93%; at BRD3 BD2, 92%; at BRD4 BD2 it was 88%; at BRD4 BD1 it was 94%.
